Laboratory results reported in patent US4463007A, “Triazoloquinazolinones, and compositions and methods for treating allergic disorders with them” (BASF Aktiengesellschaft, priority 1981, dated 1984).

Test system: PCA in rats
Experiment: Passive cutaneous anaphylaxis (PCA) in rats, anti-allergic action, oral administration
Type: in vivo, rat
Settings: for ED50: Rattus norvegicus, dose which reduces diameter of color patch by 50% relative to non-medicated controls, read-out: Inhibition of PCA in rats, ED 50%; for ED50 / times more active than the comparative compound Pirquinozol / R.A. (relative activity): oral; for R.A. (relative activity): Pirquinozol = 1.00
Procedure: The anti-allergic action was tested on rats, using the passive cutaneous anaphylaxis (PCA) model.
Narcotized male rats (100 to 140 g) are sensitized by intradermal injection (into the shaved dorsal skin) of 0.1 ml of an ovalbumin antiserum. After a sensitization period of about 48 hours, the treatment (intraperitoneal or oral administration) is carried out with various dosages (10 animals/dose)of the test substances. 15-20 minutes after treatment, an antigen/Evans blue mixture (10 mg/kg of ovalbumin in 2% strength Evans blue solution) is injected intravenously into the test animals. 30 minutes later, the animals are sacrificed, the dorsal skin is removed and the diameter of the circular blue coloration is measured on the inner surface. The size of the color patches of untreated control animals can be standardized. Anti-allergic substances reduce the diameter of the color patch by an amount dependent on the dose. The ED 50% is quoted as the dose which reduces the diameter of the color patch by 50% relative to that of non-medicated control animals. In addition to the anti-allergic action, the acute toxicity was determined for intraperitoneal administration, using groups of 2 NMRI mice, each weighing 20-26 g, and for oral administration, using groups of 2 Sprague-Dawley rats, each weighing 120-150 g. The LD 50 was determined on groups of 10 NMRI mice, each weighing 20-26 g, after intraperitoneal administration. The post-observation period was 14 days.

Compound	ED50 [mg/kg]	activity in oral doses (in words) (oral doses of up to 100 mg/kg, PCA rats)	times more active than the comparative compound Pirquinozol (PCA rats) [times]	R.A. (relative activity) (PCA rats)
O=C(O)c1cc(=O)c2c(OCC(O)COc3cccc4oc(C(=O)O)cc(=O)c34)cccc2o1 [Cromolyne, reference compound]	> 100	inactive	–	–
CCOC(=O)c1nc2c3cc(C)ccc3n(CC)c(=O)n2n1 [Example 17, Ethyl 6-ethyl-9-methyl-1,2,4-triazolo[1,5-c]quinazolin-5-one-2-carboxylate]	0.271	–	4.4	4.39
CCOC(=O)c1nc2c3cc(C)ccc3n(C)c(=O)n2n1 [Example 25, Ethyl 6,9-dimethyl-1,2,4-triazolo[1,5-c]quinazolin-5-one-2-carboxylate]	0.617	–	–	1.92
CCOC(=O)c1nc2c3cc(C)c(C)cc3n(C)c(=O)n2n1 [Example 27, Ethyl 6,8,9-trimethyl-1,2,4-triazolo[1,5-c]quinazolin-5-one-2-carboxylate]	1	–	1.2	1.19
CCOC(=O)c1nc2c3ccccc3n(CC)c(=O)n2n1 [Example 14, Ethyl 6-ethyl-1,2,4-triazolo[1,5-c]quinazolin-5-one-2-carboxylate]	0.707	–	–	1.68
O=c1[nH]c2ccccc2c2cc(CO)nn12 [Pirquinozol, reference compound]	1.19	–	–	1.00
CCOC(=O)c1nc2c3cc(C)c(C)cc3n(CC)c(=O)n2n1 [Example 28, Ethyl 8,9-dimethyl-6-ethyl-1,2,4-triazolo[1,5-c]quinazolin-5-one-2-carboxylate]	0.876	–	–	1.36
CCOC(=O)c1nc2c3cc(Cl)ccc3n(C)c(=O)n2n1 [Example 20, Ethyl 9-chloro-6-methyl-1,2,4-triazolo[1,5-c]quinazolin-5-one-2-carboxylate]	0.723	–	–	1.64
CCOC(=O)c1nc2c3ccccc3n(C)c(=O)n2n1 [Example 13, Ethyl 6-methyl-1,2,4-triazolo[1,5-c]quinazolin-5-one-2-carboxylate]	0.518	–	–	2.29
